# Literature values, collected in patent US8629099B2, “Ophthalmic compositions comprising a dipeptide” (Bausch & Lomb Incorporated, priority 2008, dated 2014).
# Settings: lower pKa given in text
smiles,measurement,value
NCC(=O)O [glycine],pKa values (first value),2.4
